Laboratory results as given in ChEMBL document CHEMBL1201862, “PubChem BioAssay data set” (2004).
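Dose response: 5 concentrations. Exposure: 48 h. Format: 96-well plates. Endpoint: linear interpolation; highest concentration if not reached. GI50 = concentration required for 50% inhibition of growth.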 Activity calls are given as the source filed them. No stated cut-off is given here; in the data, active = GI50 up to about 1.1 µM and inactive = higher.

What was measured:
Test in all cases: NCI anticancer screen, dose series, 48 h
[1] = tested on: MDA-MB-435
[2] = tested on: HCC 2998
[3] = tested on: HCT-116
[4] = tested on: HCT-15
[5] = tested on: SW-620
[6] = tested on: NCI-H522
[7] = tested on: UACC-62
[8] = tested on: NCI-H226
[9] = tested on: SF-268
[10] = tested on: 786-0
[11] = tested on: HOP-92
[12] = tested on: SR
[13] = tested on: LOX IMVI
[14] = tested on: DU-145
[15] = tested on: OVCAR-4
[16] = tested on: OVCAR-8
[17] = tested on: SK-MEL-2
[18] = tested on: COLO 205
[19] = tested on: SK-MEL-5
[20] = tested on: ACHN
[21] = tested on: MOLT-4
[22] = tested on: RXF 393
[23] = tested on: A549
[24] = tested on: K562
[25] = tested on: NCI-H460
[26] = tested on: A498
[27] = tested on: SF-539
[28] = tested on: PC-3
[29] = tested on: SNB-75
[30] = tested on: UACC-257
[31] = tested on: SNB-19
[32] = tested on: OVCAR-5
[33] = tested on: EKVX
[34] = tested on: M14
[35] = tested on: Hs-578T
[36] = tested on: BT-549
[37] = tested on: NCI-H23
[38] = tested on: Malme-3M
[39] = tested on: UO-31
[40] = tested on: MDA-N
[41] = tested on: KM12
[42] = tested on: MCF7
[43] = tested on: IGROV-1
[44] = tested on: U-251
[45] = tested on: RPMI-8226
[46] = tested on: T47D
[47] = tested on: NCI/ADR-RES
[48] = tested on: OVCAR-3
[49] = tested on: SN12C
[50] = tested on: HT-29
[51] = tested on: CCRF-CEM
[52] = tested on: MDA-MB-231
[53] = tested on: CAKI-1
[54] = tested on: HOP-62
[55] = tested on: HL-60
[56] = tested on: TK-10
[57] = tested on: SF-295
[58] = tested on: SK-MEL-28
[59] = tested on: SK-OV-3

Cc1ccnc2nc(-c3ccc(F)cc3)cc(O)c12
GI50 [1]: 3.15 µM (inactive) | GI50 [2]: 60 µM (inactive) | GI50 [3]: 16.9 µM (inactive) | GI50 [4]: 5.08 µM | GI50 [5]: 33.7 µM (inactive) | GI50 [6]: 9.04 µM (inactive) | GI50 [7]: 16 µM (inactive) | GI50 [8]: 64 µM (inactive) | GI50 [9]: 74.6 µM (inactive) | GI50 [10]: 42.2 µM (inactive) | GI50 [11]: 51.1 µM (inactive) | GI50 [12]: 3.82 µM (inactive) | GI50 [13]: 26.2 µM (inactive) | GI50 [14]: > 69.5 µM (inactive) | GI50 [15]: 77.6 µM (inactive) | GI50 [16]: > 100 µM (inactive) | GI50 [17]: 57.3 µM (inactive) | GI50 [18]: 19.5 µM (inactive) | GI50 [19]: 22.6 µM (inactive) | GI50 [20]: 68.1 µM (inactive) | GI50 [21]: > 71.4 µM (inactive) | GI50 [22]: > 82.8 µM (inactive) | GI50 [23]: 54.2 µM (inactive) | GI50 [24]: 5.55 µM (inactive) | GI50 [25]: 13.2 µM (inactive) | GI50 [26]: 63.2 µM (inactive) | GI50 [27]: 57.3 µM (inactive) | GI50 [28]: > 80.4 µM (inactive) | GI50 [29]: 29.6 µM (inactive) | GI50 [30]: > 92 µM (inactive) | GI50 [31]: > 78.7 µM (inactive) | GI50 [32]: > 100 µM (inactive) | GI50 [33]: 79.6 µM (inactive) | GI50 [34]: 28.4 µM (inactive) | GI50 [35]: 72.4 µM (inactive) | GI50 [36]: > 100 µM (inactive) | GI50 [37]: 75.7 µM (inactive) | GI50 [38]: 92.7 µM (inactive) | GI50 [39]: > 70.5 µM (inactive) | GI50 [40]: 3.51 µM (inactive) | GI50 [41]: 7.23 µM (inactive) | GI50 [42]: 24.5 µM (inactive) | GI50 [43]: 26.4 µM (inactive) | GI50 [44]: 38 µM (inactive) | GI50 [45]: 35.3 µM (inactive) | GI50 [46]: > 72.6 µM (inactive) | GI50 [47]: > 86.3 µM (inactive) | GI50 [48]: 67.6 µM (inactive) | GI50 [49]: > 100 µM (inactive) | GI50 [50]: 18.7 µM (inactive) | GI50 [51]: 75.9 µM (inactive) | GI50 [52]: > 80.7 µM (inactive) | GI50 [53]: 36.2 µM (inactive) | GI50 [54]: 68.7 µM (inactive) | GI50 [55]: 5.97 µM (inactive) | GI50 [56]: > 97.3 µM (inactive) | GI50 [57]: 86.3 µM (inactive) | GI50 [58]: 77.3 µM (inactive) | GI50 [59]: > 86.9 µM (inactive)

C=CC(=O)C#Cc1cnc(OC)nc1OC
GI50 [1]: 16.6 µM (inactive) | GI50 [2]: 19 µM (inactive) | GI50 [3]: 9.59 µM (inactive) | GI50 [4]: 10.7 µM | GI50 [5]: 4.95 µM (inactive) | GI50 [6]: 6.41 µM (inactive) | GI50 [7]: 16.1 µM (inactive) | GI50 [8]: > 48.5 µM (inactive) | GI50 [9]: 30.1 µM (inactive) | GI50 [10]: 4.15 µM (inactive) | GI50 [11]: 1.39 µM (inactive) | GI50 [12]: 2.49 µM (inactive) | GI50 [13]: 5.46 µM (inactive) | GI50 [14]: 37.2 µM (inactive) | GI50 [15]: 20.8 µM (inactive) | GI50 [16]: 26.7 µM (inactive) | GI50 [17]: 22.1 µM (inactive) | GI50 [18]: 3.83 µM (inactive) | GI50 [19]: 15.2 µM (inactive) | GI50 [20]: 7.43 µM (inactive) | GI50 [21]: 1.69 µM (inactive) | GI50 [22]: 25.2 µM (inactive) | GI50 [23]: 59 µM (inactive) | GI50 [24]: 1.38 µM (inactive) | GI50 [25]: 24.6 µM (inactive) | GI50 [26]: 34.3 µM (inactive) | GI50 [27]: 13.3 µM (inactive) | GI50 [28]: 19.8 µM (inactive) | GI50 [29]: 12.6 µM (inactive) | GI50 [30]: 6.38 µM (inactive) | GI50 [31]: 19.1 µM (inactive) | GI50 [32]: 16.1 µM (inactive) | GI50 [33]: 24.4 µM (inactive) | GI50 [34]: 14.9 µM (inactive) | GI50 [35]: 33.3 µM (inactive) | GI50 [36]: 12.3 µM (inactive) | GI50 [37]: 17.5 µM (inactive) | GI50 [38]: 15.8 µM (inactive) | GI50 [39]: 16.9 µM (inactive) | GI50 [40]: 16.4 µM (inactive) | GI50 [41]: 13.4 µM (inactive) | GI50 [42]: 5.13 µM (inactive) | GI50 [43]: 22.9 µM (inactive) | GI50 [44]: 13.9 µM (inactive) | GI50 [45]: 1.6 µM (inactive) | GI50 [46]: 21.7 µM (inactive) | GI50 [47]: 31.3 µM (inactive) | GI50 [48]: 18.2 µM (inactive) | GI50 [49]: 18.7 µM (inactive) | GI50 [50]: 16.1 µM (inactive) | GI50 [51]: 0.515 µM (active) | GI50 [52]: 19.8 µM (inactive) | GI50 [53]: 7.29 µM (inactive) | GI50 [54]: 22.8 µM (inactive) | GI50 [55]: 1.09 µM (active) | GI50 [56]: 15.6 µM (inactive) | GI50 [57]: 41.4 µM (inactive) | GI50 [58]: 10.4 µM (inactive) | GI50 [59]: > 100 µM (inactive)
